Values joined by “and” are separate entries in the source; they are usually repeats but may differ in a detail not shown here. Equal entries are not always repeated. Inconclusive results are not listed.
Test system: mice, P1798 lymphosarcoma sc, survival or tumor weight T/C
Assay: NCI In Vivo Anticancer Drug Screen. Data for tumor model P1798 Lymphosarcoma (subcutaneous) in unknown mice
Description: The antitumor activity of compounds was measured in mice bearing transplantable tumors. Survival or tumor size were measured and the results are expressed as the measurement made in the treated group (T) divided by the measurement made in the vehicle treated control group (C). The tumor model used in this assay is P1798 Lymphosarcoma (subcutaneous) in unknown mice

[1] = endpoint: mean tumor weight, dose: 1.25 mg/kg/injection, schedule: Q01DX010 (ip), vehicle: saline, higher = larger tumour
[2] = endpoint: mean tumor weight, dose: 2.5 mg/kg/injection, schedule: Q01DX010 (ip), vehicle: saline, higher = larger tumour
[3] = endpoint: mean tumor weight, dose: 5.0 mg/kg/injection, schedule: Q01DX010 (ip), vehicle: saline, higher = larger tumour
[4] = endpoint: mean tumor weight, dose: 25.0 mg/kg/injection, schedule: Q01DX010 (ip), vehicle: carboxymethylcellulose (CMC), higher = larger tumour
[5] = endpoint: mean tumor weight, dose: 5.0 mg/kg/injection, schedule: Q01DX010 (ip), vehicle: carboxymethylcellulose (CMC), higher = larger tumour

## C[C@]12C=CC(=O)C=C1CC[C@@H]1[C@@H]2C(=O)C[C@@]2(C)[C@H]1CC[C@]2(O)C(=O)CO
endpoint: mean tumor weight, dose: 0.31 mg/kg/injection, schedule: Q01DX010 (sc), vehicle: steriod suspending solution, higher = larger tumour
  T/C: 81 % of control
endpoint: mean tumor weight, dose: 0.62 mg/kg/injection, schedule: Q01DX010 (sc), vehicle: steriod suspending solution, higher = larger tumour
  T/C: 124 % of control
endpoint: mean tumor weight, dose: 3.1 mg/kg/injection, schedule: Q01DX010 (sc), vehicle: steriod suspending solution, higher = larger tumour
  T/C: 82 % of control
endpoint: mean tumor weight, dose: 5.0 mg/kg/injection, schedule: Q01DX010 (sc), vehicle: steriod suspending solution, higher = larger tumour
  T/C: 59 % of control
endpoint: mean tumor weight, dose: 6.25 mg/kg/injection, schedule: Q01DX010 (sc), vehicle: steriod suspending solution, higher = larger tumour
  T/C: 99 % of control
endpoint: mean tumor weight, dose: 10.0 mg/kg/injection, schedule: Q01DX010 (sc), vehicle: steriod suspending solution, higher = larger tumour
  T/C: 83 % of control
endpoint: mean tumor weight, dose: 10.0 mg/kg/injection, schedule: Q01DX010 (sc), vehicle: water, higher = larger tumour
  T/C: 105 % of control
endpoint: mean tumor weight, dose: 20.0 mg/kg/injection, schedule: Q01DX010 (sc), vehicle: steriod suspending solution, higher = larger tumour
  T/C: 68 % of control and 74 % of control
endpoint: mean tumor weight, dose: 20.0 mg/kg/injection, schedule: Q01DX010 (sc), vehicle: water, higher = larger tumour
  T/C: 108 % of control
endpoint: mean tumor weight, dose: 40.0 mg/kg/injection, schedule: Q01DX010 (sc), vehicle: water, higher = larger tumour
  T/C: 100 % of control
endpoint: mean tumor weight, dose: 60.0 mg/kg/injection, schedule: Q01DX001 (sc), vehicle: steriod suspending solution, higher = larger tumour
  T/C: 87 % of control
endpoint: mean tumor weight, dose: 120.0 mg/kg/injection, schedule: Q01DX001 (sc), vehicle: steriod suspending solution, higher = larger tumour
  T/C: 34 % of control
endpoint: median survival time, dose: 2.34 mg/kg/injection, schedule: Q01DX029 (ip), vehicle: saline, higher = longer survival
  T/C: 82 % of control
endpoint: median survival time, dose: 4.67 mg/kg/injection, schedule: Q01DX025 (ip), vehicle: saline, higher = longer survival
  T/C: 96 % of control
endpoint: median survival time, dose: 9.35 mg/kg/injection, schedule: Q01DX025 (ip), vehicle: saline, higher = longer survival
  T/C: 100 % of control
endpoint: median survival time, dose: 9.35 mg/kg/injection, schedule: Q01DX029 (ip), vehicle: saline, higher = longer survival
  T/C: 98 % of control
endpoint: median survival time, dose: 9.37 mg/kg/injection, schedule: Q01DX029 (ip), vehicle: saline, higher = longer survival
  T/C: 89 % of control
endpoint: median survival time, dose: 18.7 mg/kg/injection, schedule: Q01DX025 (ip), vehicle: saline, higher = longer survival
  T/C: 88 % of control
endpoint: median survival time, dose: 18.75 mg/kg/injection, schedule: Q01DX010 (ip), vehicle: saline, higher = longer survival
  T/C: 101 % of control
endpoint: median survival time, dose: 37.5 mg/kg/injection, schedule: Q01DX025 (ip), vehicle: saline, higher = longer survival
  T/C: 75 % of control
endpoint: median survival time, dose: 75.0 mg/kg/injection, schedule: Q01DX010 (sc), vehicle: saline, higher = longer survival
  T/C: 153 % of control
endpoint: median survival time, dose: 75.0 mg/kg/injection, schedule: Q01DX025 (ip), vehicle: saline, higher = longer survival
  T/C: 59 % of control
endpoint: median survival time, dose: 150.0 mg/kg/injection, schedule: Q01DX010 (sc), vehicle: saline, higher = longer survival
  T/C: 47 % of control
endpoint: median survival time, dose: 150.0 mg/kg/injection, schedule: Q01DX025 (ip), vehicle: saline, higher = longer survival
  T/C: 46 % of control
endpoint: median survival time, dose: 150.0 mg/kg/injection, schedule: Q01DX029 (ip), vehicle: saline, higher = longer survival
  T/C: 42 % of control
endpoint: median survival time, dose: 300.0 mg/kg/injection, schedule: Q01DX010 (sc), vehicle: saline, higher = longer survival
  T/C: 39 % of control
endpoint: median survival time, dose: 600.0 mg/kg/injection, schedule: Q01DX010 (sc), vehicle: saline, higher = longer survival
  T/C: 34 % of control

## CC12C=CC(=O)C=C1CCC1C3CCC(O)(C(=O)CO)C3(C)CC(O)C12F (centres undefined)
endpoint: mean tumor weight, dose: 3.0 mg/kg/injection, schedule: Q01DX010 (sc), vehicle: steriod suspending solution, higher = larger tumour
  T/C: 85 % of control
endpoint: mean tumor weight, dose: 6.0 mg/kg/injection, schedule: Q01DX010 (sc), vehicle: steriod suspending solution, higher = larger tumour
  T/C: 58 % of control
endpoint: mean tumor weight, dose: 12.0 mg/kg/injection, schedule: Q01DX010 (sc), vehicle: steriod suspending solution, higher = larger tumour
  T/C: 56 % of control

## Cn1c(O)c(N=NC(N)=S)c2ccccc21
endpoint: mean tumor weight, dose: 25.0 mg/kg/injection, schedule: Q01DX011 (ip), vehicle: carboxymethylcellulose (CMC), higher = larger tumour
  T/C: 206 % of control
endpoint: mean tumor weight, dose: 50.0 mg/kg/injection, schedule: Q01DX011 (ip), vehicle: carboxymethylcellulose (CMC), higher = larger tumour
  T/C: 117 % of control
endpoint: mean tumor weight, dose: 100.0 mg/kg/injection, schedule: Q01DX011 (ip), vehicle: carboxymethylcellulose (CMC), higher = larger tumour
  T/C: 87 % of control

## N[C@@H](Cc1ccc(N(CCCl)CCCl)cc1)C(=O)O
[1]
  T/C: 49 % of control
[2]
  T/C: 29 % of control
endpoint: mean tumor weight, dose: 4.0 mg/kg/injection, schedule: Q01DX011 (ip), vehicle: carboxymethylcellulose (CMC), higher = larger tumour
  T/C: 13 % of control
[3]
  T/C: 16 % of control
endpoint: median survival time, dose: 0.75 mg/kg/injection, schedule: Q01DX010 (sc), vehicle: saline, higher = longer survival
  T/C: 112 % of control
endpoint: median survival time, dose: 1.5 mg/kg/injection, schedule: Q01DX010 (sc), vehicle: saline, higher = longer survival
  T/C: 104 % of control
endpoint: median survival time, dose: 3.0 mg/kg/injection, schedule: Q01DX010 (sc), vehicle: saline, higher = longer survival
  T/C: 75 % of control
endpoint: median survival time, dose: 6.0 mg/kg/injection, schedule: Q01DX010 (sc), vehicle: saline, higher = longer survival
  T/C: 52 % of control
endpoint: median survival time, dose: 12.0 mg/kg/injection, schedule: Q01DX010 (sc), vehicle: saline, higher = longer survival
  T/C: 26 % of control

## N#CCSc1ncnc2nc[nH]c12
[4]
  T/C: 49 % of control
endpoint: mean tumor weight, dose: 50.0 mg/kg/injection, schedule: Q01DX010 (ip), vehicle: carboxymethylcellulose (CMC), higher = larger tumour
  T/C: 46 % of control

## C[C@H]1C(=O)O[C@@H]2CCN3CC=C(COC(=O)[C@](C)(O)[C@@]1(C)O)[C@H]23
endpoint: mean tumor weight, dose: 3.75 mg/kg/injection, schedule: Q01DX010 (ip), vehicle: carboxymethylcellulose (CMC), higher = larger tumour
  T/C: 73 % of control
endpoint: mean tumor weight, dose: 7.5 mg/kg/injection, schedule: Q01DX010 (ip), vehicle: carboxymethylcellulose (CMC), higher = larger tumour
  T/C: 68 % of control
endpoint: mean tumor weight, dose: 15.0 mg/kg/injection, schedule: Q01DX010 (ip), vehicle: carboxymethylcellulose (CMC), higher = larger tumour
  T/C: 44 % of control
endpoint: mean tumor weight, dose: 30.0 mg/kg/injection, schedule: Q01DX010 (ip), vehicle: carboxymethylcellulose (CMC), higher = larger tumour
  T/C: 23 % of control

## N=[N+]=CC(=O)OCC(N)C(=O)O (centres undefined)
[1]
  T/C: 98 % of control
[2]
  T/C: 56 % of control
[3]
  T/C: 17 % of control and 24 % of control

## CN(C)/N=N/c1nc[nH]c1C(N)=O
endpoint: mean tumor weight, dose: 75.0 mg/kg/injection, schedule: Q01DX015 (ip), vehicle: carboxymethylcellulose (CMC), higher = larger tumour
  T/C: 73 % of control
endpoint: mean tumor weight, dose: 100.0 mg/kg/injection, schedule: Q01DX015 (ip), vehicle: carboxymethylcellulose (CMC), higher = larger tumour
  T/C: 69 % of control
endpoint: mean tumor weight, dose: 125.0 mg/kg/injection, schedule: Q01DX015 (ip), vehicle: carboxymethylcellulose (CMC), higher = larger tumour
  T/C: 57 % of control
endpoint: mean tumor weight, dose: 150.0 mg/kg/injection, schedule: Q01DX015 (ip), vehicle: carboxymethylcellulose (CMC), higher = larger tumour
  T/C: 52 % of control

## N#[N+]c1cnc([O-])[nH]c1=O
[5]
  T/C: 105 % of control
endpoint: mean tumor weight, dose: 10.0 mg/kg/injection, schedule: Q01DX010 (ip), vehicle: carboxymethylcellulose (CMC), higher = larger tumour
  T/C: 47 % of control

## O=C(O)CCCc1ccc(N(CCCl)CCCl)cc1
endpoint: mean tumor weight, dose: 3.12 mg/kg/injection, schedule: Q01DX010 (ip), vehicle: carboxymethylcellulose (CMC), higher = larger tumour
  T/C: 86 % of control
endpoint: mean tumor weight, dose: 6.25 mg/kg/injection, schedule: Q01DX010 (ip), vehicle: carboxymethylcellulose (CMC), higher = larger tumour
  T/C: 89 % of control
endpoint: mean tumor weight, dose: 12.5 mg/kg/injection, schedule: Q01DX010 (ip), vehicle: carboxymethylcellulose (CMC), higher = larger tumour
  T/C: 104 % of control
[4]
  T/C: 73 % of control

## Nc1nc(SCc2ccccc2)c2[nH]cnc2n1
endpoint: mean tumor weight, dose: 4.7 mg/kg/injection, schedule: Q01DX010 (ip), vehicle: carboxymethylcellulose (CMC), higher = larger tumour
  T/C: 42 % of control
endpoint: mean tumor weight, dose: 9.4 mg/kg/injection, schedule: Q01DX010 (ip), vehicle: carboxymethylcellulose (CMC), higher = larger tumour
  T/C: 51 % of control

## NC(Cc1ccc(N(CCCl)CCCl)cc1)C(=O)O (centres undefined)
endpoint: mean tumor weight, dose: 0.5 mg/kg/injection, schedule: Q01DX010 (ip), vehicle: saline, higher = larger tumour
  T/C: 86 % of control
endpoint: mean tumor weight, dose: 0.63 mg/kg/injection, schedule: Q01DX010 (ip), vehicle: carboxymethylcellulose (CMC), higher = larger tumour
  T/C: 117 % of control
endpoint: mean tumor weight, dose: 1.0 mg/kg/injection, schedule: Q01DX010 (ip), vehicle: saline, higher = larger tumour
  T/C: 67 % of control
endpoint: mean tumor weight, dose: 1.25 mg/kg/injection, schedule: Q01DX010 (ip), vehicle: carboxymethylcellulose (CMC), higher = larger tumour
  T/C: 110 % of control
[1]
  T/C: 89 % of control
endpoint: mean tumor weight, dose: 2.0 mg/kg/injection, schedule: Q01DX010 (ip), vehicle: saline, higher = larger tumour
  T/C: 77 % of control
endpoint: mean tumor weight, dose: 4.0 mg/kg/injection, schedule: Q01DX010 (ip), vehicle: saline, higher = larger tumour
  T/C: 60 % of control
[5]
  T/C: 40 % of control
[3]
  T/C: 36 % of control
endpoint: mean tumor weight, dose: 10.0 mg/kg/injection, schedule: Q01DX010 (ip), vehicle: saline, higher = larger tumour
  T/C: 5 % of control

## O=C(Nc1ccc(C2=NCCCN2)cc1)c1ccc(NC(=O)c2ccc(C3=NCCCN3)cc2)cc1
endpoint: mean tumor weight, dose: 2.0 mg/kg/injection, schedule: Q01DX010 (ip), vehicle: carboxymethylcellulose (CMC), higher = larger tumour
  T/C: 73 % of control
endpoint: mean tumor weight, dose: 4.0 mg/kg/injection, schedule: Q01DX010 (ip), vehicle: carboxymethylcellulose (CMC), higher = larger tumour
  T/C: 50 % of control
endpoint: mean tumor weight, dose: 8.0 mg/kg/injection, schedule: Q01DX010 (ip), vehicle: carboxymethylcellulose (CMC), higher = larger tumour
  T/C: 15 % of control

## Nc1nc2n[nH]nc2c(=O)[nH]1
endpoint: mean tumor weight, dose: 50.0 mg/kg/injection, schedule: Q01DX010 (ip), vehicle: other, higher = larger tumour
  T/C: 67 % of control and 71 % of control and 88 % of control
endpoint: mean tumor weight, dose: 200.0 mg/kg/injection, schedule: Q01DX010 (ip), vehicle: other, higher = larger tumour
  T/C: 46 % of control

## CO[C@H](C(=O)[C@@H](O)[C@@H](C)O)[C@@H]1Cc2cc3cc(OC4CC(OC5CC(O)C(O)C(C)O5)C(O)C(C)O4)c(C)c(O)c3c(O)c2C(=O)[C@H]1OC1CC(OC2CC(OC3CC(C)(O)C(O)C(C)O3)C(O)C(C)O2)C(O)C(C)O1 (some centres undefined)
endpoint: mean tumor weight, dose: 0.06 mg/kg/injection, schedule: Q01DX011 (ip), vehicle: saline, higher = larger tumour
  T/C: 89 % of control and 102 % of control
